Laboratory results: patent US9957267B2, “Somatostatin modulators and uses thereof” (Crinetics Pharmaceuticals, Inc., priority 2015, dated 2018)

What was measured:
Assay type in all cases: cell-based
SSTR1 = target: T1, SSTR1 (Homo sapiens, UniProt P30872); experiment: cAMP functional agonist assay, CHO cells expressing SSTR1
T1 construct: expressed in transfected cells
Protocol: (§1) Chinese hamster ovary (CHO) cells stably expressing one of the six human or rodent somatostatin receptor subtypes are grown to 85-100% confluence on standard tissue culture dishes in F12-Ham's growth media (Hyclone) with following additives: 10% donor calf serum (Hyclone), 200 U/mL penicillin (Hyclone), 200 μg/mL streptomycin (Hyclone), 20 mM HEPES (Hyclone), 200 μg/mL hygromycin Hyclone.
(§2) General overview: All SSTR subtypes are Gi coupled G-protein coupled receptors (GPCRs) that lead to decreases in intracellular cyclic AMP (cAMP) when activated by an agonist. […] One example of an intracellular cAMP assay is described below.

SSTR4 = target: T2, SSTR4 (Homo sapiens, UniProt P31391); experiment: cAMP functional agonist assay, CHO cells expressing SSTR4
T2 construct: expressed in transfected cells
Protocol: as §1, §2

SSTR3 = SSTR3 (UniProt P32745); experiment: cAMP functional agonist assay, CHO cells expressing SSTR3; conditions: CHO cells stably expressing SSTR3, cAMP
Protocol: as §1
(§3) General overview: All SSTR subtypes are Gi coupled G-protein coupled receptors (GPCRs) that lead to decreases in intracellular cyclic AMP (cAMP) when activated by an agonist. Therefore, measurement of intracellular cAMP levels can be used to assess whether compounds of the invention are agonists of SSTR subtypes (John Kelly, Troy Stevens, W. Joseph Thompson, and Roland Seifert, Current Protocols in Pharmacology, 2005, 2.2.1-2.2). One example of an intracellular cAMP assay is described below.

SSTR5 = target: T3, SSTR5 (Homo sapiens, UniProt P35346); experiment: cAMP functional agonist assay, CHO cells expressing SSTR5; conditions: CHO cells stably expressing SSTR5, cAMP
T3 construct: expressed in transfected cells
Protocol: as §1, §3

T2 sequence (P31391 whole entry): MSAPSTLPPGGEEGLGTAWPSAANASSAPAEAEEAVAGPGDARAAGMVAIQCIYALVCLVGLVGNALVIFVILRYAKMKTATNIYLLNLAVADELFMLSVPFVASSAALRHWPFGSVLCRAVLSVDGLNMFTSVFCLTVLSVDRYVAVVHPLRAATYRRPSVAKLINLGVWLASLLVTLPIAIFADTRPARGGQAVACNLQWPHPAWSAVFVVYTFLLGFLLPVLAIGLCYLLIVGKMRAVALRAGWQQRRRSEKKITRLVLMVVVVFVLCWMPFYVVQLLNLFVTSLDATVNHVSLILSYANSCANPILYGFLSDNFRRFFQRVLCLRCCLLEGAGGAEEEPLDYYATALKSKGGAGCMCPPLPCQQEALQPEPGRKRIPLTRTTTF
T3 sequence (P35346 whole entry): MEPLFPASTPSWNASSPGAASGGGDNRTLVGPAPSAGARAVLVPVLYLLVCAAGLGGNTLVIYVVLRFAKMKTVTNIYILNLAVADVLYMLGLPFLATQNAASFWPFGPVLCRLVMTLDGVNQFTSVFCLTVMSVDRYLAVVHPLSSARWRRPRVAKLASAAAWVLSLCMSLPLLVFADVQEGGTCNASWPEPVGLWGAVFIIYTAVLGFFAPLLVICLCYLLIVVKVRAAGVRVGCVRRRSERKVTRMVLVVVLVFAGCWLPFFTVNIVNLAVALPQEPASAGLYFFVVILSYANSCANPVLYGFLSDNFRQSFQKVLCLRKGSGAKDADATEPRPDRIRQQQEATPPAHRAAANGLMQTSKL
Chain of SSTR3 (P32745 whole entry): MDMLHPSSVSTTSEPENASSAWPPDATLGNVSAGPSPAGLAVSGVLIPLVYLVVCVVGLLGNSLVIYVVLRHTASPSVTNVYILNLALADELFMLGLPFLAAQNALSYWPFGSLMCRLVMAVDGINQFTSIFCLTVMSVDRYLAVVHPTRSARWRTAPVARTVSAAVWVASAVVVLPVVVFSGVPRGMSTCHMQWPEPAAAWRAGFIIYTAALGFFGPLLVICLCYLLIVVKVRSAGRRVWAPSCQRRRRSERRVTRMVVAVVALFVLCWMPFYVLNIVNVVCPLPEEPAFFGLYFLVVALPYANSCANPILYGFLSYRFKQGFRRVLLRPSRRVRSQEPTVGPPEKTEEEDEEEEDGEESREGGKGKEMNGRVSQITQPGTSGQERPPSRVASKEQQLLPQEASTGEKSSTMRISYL
T1 sequence (P30872 whole entry): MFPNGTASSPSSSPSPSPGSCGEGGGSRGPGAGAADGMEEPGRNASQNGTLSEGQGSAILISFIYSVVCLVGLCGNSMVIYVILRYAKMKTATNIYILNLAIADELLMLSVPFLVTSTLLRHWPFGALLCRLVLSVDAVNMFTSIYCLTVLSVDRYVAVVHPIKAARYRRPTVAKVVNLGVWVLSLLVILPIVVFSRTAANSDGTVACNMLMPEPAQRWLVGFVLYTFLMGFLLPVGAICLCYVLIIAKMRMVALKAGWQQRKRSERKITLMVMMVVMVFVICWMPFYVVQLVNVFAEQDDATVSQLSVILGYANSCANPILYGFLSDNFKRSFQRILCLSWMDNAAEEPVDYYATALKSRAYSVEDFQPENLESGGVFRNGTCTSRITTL

| SMILES | EC50 (SSTR1) [nM] | EC50 (SSTR4) [nM] | EC50 (SSTR3) [nM] | EC50 (SSTR5) [nM] |
| --- | --- | --- | --- | --- |
| Cc1cc(C)cc(-c2cnc3ncn(-c4cccc(O)c4)c(=O)c3c2CN2CCC(N)C2)c1 (centres unmarked) [Compound A-10, 5-[(3-aminopyrrolidin-1-yl)methyl]-6-(3,5-dimethylphenyl)-3-(3-hydroxyphenyl)-3H,4H-pyrido[2,3-d]pyrimidin-4-one] | – | 100 to 10000 | > 10000 | – |
| Cc1cc(C)cc(-c2cnc3ncn(-c4cccc(O)c4)c(=O)c3c2CN(C)CC2(N)CCCC2)c1 [Compound A-12, 5-({[(1-aminocyclopentyl)methyl](methyl)amino}methyl)-6-(3,5-dimethylphenyl)-3-(3-hydroxyphenyl)-3H,4H-pyrido[2,3-d]pyrimidin-4-one] | – | < 100 | 100 to 10000 | 100 to 10000 |
| CNC(=O)c1cccc(-n2cnc3ncc(-c4cc(C)cc(C)c4)c(CN(C)C[C@@H]4CCCN4)c3c2=O)c1 [Compound A-43, 3-[6-(3,5-dimethylphenyl)-5-({methyl[(2S)-pyrrolidin-2-ylmethyl]amino}methyl)-4-oxo-3H,4H-pyrido[2,3-d]pyrimidin-3-yl]-N-methylbenzamide] | – | < 100 | 100 to 10000 | – |
| Cc1cc(C)cc(-c2cnc3ncn(-c4cccc(O)c4)c(=O)c3c2CN(C)C[C@H](C)N)c1 [Compound A-8, 5-({[(2S)-2-aminopropyl](methyl)amino}methyl)-6-(3,5-dimethylphenyl)-3-(3-hydroxyphenyl)-3H,4H-pyrido[2,3-d]pyrimidin-4-one] | – | < 100 | 100 to 10000 | > 10000 |
| Cc1cc(C)cc(-c2cnc3ncn(-c4cccc(CO)c4)c(=O)c3c2CN(C)C[C@@H]2CCCN2)c1 [Compound A-40, 6-(3,5-dimethylphenyl)-3-[3-(hydroxymethyl)phenyl]-5-({methyl[(2S)-pyrrolidin-2-ylmethyl]amino}methyl)-3H,4H-pyrido[2,3-d]pyrimidin-4-one] | – | < 100 | 100 to 10000 | – |
| COc1cccc(-n2cnc3ncc(-c4cc(C)cc(C)c4)c(CN(C)C[C@@H]4CCCN4)c3c2=O)c1 [Compound A-33, 6-(3,5-dimethylphenyl)-3-(3-methoxyphenyl)-5-({methyl[(2S)-pyrrolidin-2-ylmethyl]amino}methyl)-3H,4H-pyrido[2,3-d]pyrimidin-4-one] | – | < 100 | 100 to 10000 | – |

Results, then the molecule that gave them:

| EC50 (SSTR1) [nM] | EC50 (SSTR4) [nM] | EC50 (SSTR3) [nM] | EC50 (SSTR5) [nM] | SMILES |
| --- | --- | --- | --- | --- |
| 100 to 10000 | < 100 | 100 to 10000 | – | Cc1cc(C)cc(-c2cnc3ncn(-c4cccc(O)c4)c(=O)c3c2CN(C)C[C@@H]2CCN2)c1 [Compound A-18, 5-({[(2S)-azetidin-2-ylmethyl](methyl)amino}methyl)-6-(3,5-dimethylphenyl)-3-(3-hydroxyphenyl)-3H,4H-pyrido[2,3-d]pyrimidin-4-one] |
| – | < 100 | < 100 | > 10000 | Cc1cc(C)cc(-c2cnc3ncn(-c4cccc(O)c4)c(=O)c3c2CN(C)CC2COCCN2)c1 (centres unmarked) [Compound A-19, 6-(3,5-dimethylphenyl)-3-(3-hydroxyphenyl)-5-{[methyl(morpholin-3-ylmethyl)amino]methyl}-3H,4H-pyrido[2,3-d]pyrimidin-4-one] |
| – | < 100 | 100 to 10000 | – | Cc1cc(C)cc(-c2cnc3ncn(-c4cccc(O)c4)c(=O)c3c2CN(C)C(C)CN)c1 (centres unmarked) [Compound A-7, 5-{[(1-aminopropan-2-yl)(methyl)amino]methyl}-6-(3,5-dimethylphenyl)-3-(3-hydroxyphenyl)-3H,4H-pyrido[2,3-d]pyrimidin-4-one] |
| – | < 100 | 100 to 10000 | – | Cc1cc(C)cc(-c2cnc3ncn(-c4ccc(O)cc4)c(=O)c3c2CN(C)C[C@@H]2CCCN2)c1 [Compound A-41, 6-(3,5-dimethylphenyl)-3-(4-hydroxyphenyl)-5-({methyl[(2S)-pyrrolidin-2-ylmethyl]amino}methyl)-3H,4H-pyrido[2,3-d]pyrimidin-4-one] |
| 100 to 10000 | < 100 | – | – | Cc1cc(C)cc(-c2cnc3ncn(-c4cccc(O)c4)c(=O)c3c2CN2CCCC2CN)c1 (centres unmarked) [Compound A-11, 5-{[2-(aminomethyl)pyrrolidin-1-yl]methyl}-6-(3,5-dimethylphenyl)-3-(3-hydroxyphenyl)-3H,4H-pyrido[2,3-d]pyrimidin-4-one] |
